Source: patent publication US12492163B2, “9H-fluorene derivatives or their pharmaceutically acceptable salts” (priority 2020, dated 2025)

Legend:
Albino Swiss CD-1 mice = assay: Passive avoidance task (scopolamine-induced memory disorders); type: in vivo, Mus musculus; conditions: scopolamine 1 mg/kg s.c.
Description: The research was conducted at the Department of Pharmacodynamics, Faculty of Pharmacy, Jagiellonian University in Krakow. All procedures were approved by the 1st and 2nd Local Ethics Committee for Animal Experiments in Krakow (consent no. 53/2017 and 250/2019) and were performed in accordance with the applicable European Union regulation (86/609/EEC). Males of two different strains of domestic mice (Mus musculus) were used in the study: Albino Swiss CD-1 (body weight approx. 20-24 g, age approx. 6 weeks) and C57BL/6J mice (body weight approx. 18-22 g, age approx. 6 weeks). The CD-1 strain was used for the passive avoidance, spontaneous mobility and rotating rod tests, while the C57BL/6J mice were used for the Morris water maze and the Barnes' maze. The animals were kept in standard, appropriately sized cages, divided into groups with a maximum of 10 animals. The animals in the study groups in the learning phase were intraperitoneally administered the test compound 1 h before the start of the experiments (doses in the preliminary test, i.e. in the passive avoidance test: 10, 30 and 60 mg/kg), and 30 minutes later, 1 mg/kg of scopolamine subcutaneously. Two control groups were used in the tests to assess the procognitive activity of JT-3—one of them received saline and the other saline and scopolamine.
The test assesses contextual memory. The apparatus consists of two chambers (white: 26 cm×26 cm×34 cm; dark: 13 cm×7.5 cm×7.5 cm) separated by a door. The test consists of a two-day procedure. On the first day (acquisition phase), test compound or saline was administered to the animals 1 h prior to testing (i.p. administration). In order to induce memory disorders, scopolamine (1 mg/kg, s.c.) was also administered after 30 min. On the first day of testing, the mouse was placed in the white compartment. […] The latency of entry into the dark chamber was measured. […] After 30 s the door between the compartments was opened and, similarly to the acquisition phase, the latency time of entering the dark compartment was measured. […]

C57BL/6J mice = assay: Morris water maze test (scopolamine); type: in vivo, Mus musculus
Description: The research was conducted at the Department of Pharmacodynamics, Faculty of Pharmacy, Jagiellonian University in Krakow. All procedures were approved by the 1st and 2nd Local Ethics Committee for Animal Experiments in Krakow (consent no. 53/2017 and 250/2019) and were performed in accordance with the applicable European Union regulation (86/609/EEC). Males of two different strains of domestic mice (Mus musculus) were used in the study: Albino Swiss CD-1 (body weight approx. 20-24 g, age approx. 6 weeks) and C57BL/6J mice (body weight approx. 18-22 g, age approx. 6 weeks). […]
At this stage of the study, each mouse underwent four trials every day (trial interval approx. 1 hour). […] During the acquisition (learning) phase, the time and distance traveled to find the platform were measured. Additionally, the trajectories of movement in the pool were analyzed. […] The latency of finding the place where the platform was previously (during the acquisition/learning phase) was measured, as well as the number of crossings through the zone, where the platform was in the acquisition phase. In addition, the total residence time and distance traveled in the relevant quadrant of the pool (in the NW zone where the platform was at the time of acquisition) were measured, as well as the speed and total distance traveled by the animal during the 60 s of the test. […]

[1] = Pharmacokinetic parameters in plasma and brain of mice; type: in vivo
Description: The research was carried out at the Department of Toxicology and Military Pharmacy, Faculty of Military Health Sciences in Hradec Kralove, Defense University in Brno in the Czech Republic, at the Biomedical Research Center and at the Department of Clinical Biochemistry of the University Hospital Hradec Kralove in the Czech Republic. All procedures were carried out under the supervision of the Ethics Committee of the Faculty of Military Health Sciences (No. 20/19; MO 215611/2019-684800). Male and female ICR-CD1 strain of domestic mice (Mus musculus) (body weight approx. 20-25 g) were used in the research. The animals were kept in standard, appropriately sized cages, divided into groups of a maximum of 8 animals. The animals in the test groups were administered the test compound intraperitoneally (doses in the acute toxicity study: 10, 20, 40 and 60 mg/kg, dose in the study of pharmacokinetic parameters 10 mg/kg). Control groups received 1% Tween 80.
After administration of compound JT-3 at the MTD dose (10 mg/kg), animals were subjected to deep terminal sedation at 0, 3, 5, 10, 20, 30, 45, 60, 90, 120, 240 and 360 minutes after dosing (six animals per time interval; n=6) and their blood was drawn by cardiac puncture into heparinized tubes. Samples were centrifuged (3000×g, 10 minutes, 10° C.). Plasma was stored at −80° C. until analyzed by HPLC. Blood in the cerebral vessels would interfere with the actual concentration levels in the brain tissue, therefore the animals were perfused transcardially with physiological saline (0.9% NaCl) for 5 minutes (10 mL/min). After perfusion, the skull was opened and the brain was carefully removed and stored at −80° C. until analyzed by HPLC.
Quantitative analyzes of JT-3 in plasma and brain were performed by HPLC. The method has been fully validated for plasma and partially validated for brain homogenate according to the EMA and FDA guidelines for the validation of bioanalytical methods [Research, C, Anonymous].

O[C@H](CNCC1CC1)[C@H](Cc1ccccc1)NC1c2ccccc2-c2ccccc21 [JT-3, (2R,3S)-3-((9H-fluoren-9-yl)amino)-1-((cyclopropylmethyl)amino)-4-phenylbutan-2-ol]
latency of entry into the dark compartment, recall phase (day 2) vs scopolamine control (Albino Swiss CD-1 mice; 10 mg/kg i.p., p<0.01): statistically significant difference
latency of entry into the dark compartment, recall phase (day 2) vs scopolamine control (Albino Swiss CD-1 mice; 30 mg/kg i.p.): not active
latency of entry into the dark compartment, recall phase (day 2) vs scopolamine control (Albino Swiss CD-1 mice; 60 mg/kg i.p.): not active
latency to find the hidden platform, acquisition phase vs scopolamine control (C57BL/6J mice; 10 mg/kg i.p., fifth day of the test, p<0.01): statistically significant difference
recall phase parameters (time, crossings, distance, entries in NW zone) (C57BL/6J mice; seventh day, 10 mg/kg i.p. on days 1-6): did not affect any of the parameters studied
Vz ([1]; both, ICR-CD1, mouse, in vivo, ip, 10 mg/kg): 40.93 ± 4.95 L/kg
Tmax ([1]; brain, mice, 10 mg/kg i.p.): 0.9167 ± 0.113 h
time of maximum concentration after administration ([1]; mice, 10 mg/kg i.p.): 60 min
penetration into the brain ([1]; mice, 10 mg/kg i.p., higher concentrations in the CNS than in plasma): Very good penetration
Half-life ([1]; plasma, elimination phase, mice, 10 mg/kg i.p.): 2.6907 ± 0.2375 h
Cmax ([1]; plasma, mice, 10 mg/kg i.p.): 430.09 ± 57.94 ng/mL
MRT ([1]; plasma, mice, 10 mg/kg i.p.): 3.6183 ± 0.2942 h
Tmax ([1]; plasma, mice, 10 mg/kg i.p.): 0.3888 ± 0.0828 h
λz (terminal phase rate constant) ([1]; plasma, mice, 10 mg/kg i.p.): 0.0045 ± 0.0004 min⁻¹
Cmax ([1]; sexes, ICR-CD1, mouse, in vivo, ip, 10 mg/kg): 833 ± 62.3 ng/g
